We go through 17 compounds from ChEMBL document CHEMBL1144699 (Bioorg Med Chem, 2008).

Data set [1] addresses Mitogen-activated protein kinase 8 (Homo sapiens, UniProt P45983). Description: Inhibition of human JNK1 by radiometric assay.
Data set [2] in a line: Lipophilicity, log D at pH 7.4. In kind it is physicochemical. The following applies: buffer.
Data set [3] can be described thus: Metabolic stability in rat microsomes at 1 uM. In kind it is ADME, Microsome. The conditions noted are these: read-out: Stability.
Data set [4] can be described thus: Metabolic stability in human microsomes at 1 uM. The format is ADME, Microsome. The conditions noted are these: read-out: Stability.
Data set [5] has as its target Mitogen-activated protein kinase 8 (Rattus norvegicus, UniProt P49185). Description: Inhibition of JNK1 in rat H9c2 cells assessed as inhibition of anisomycin-induced cJun phosphorylation after 30 mins. In kind it is cell-based.
A short description of data set [6]: Total clearance in Wistar rat at 0.3 mg/kg, iv. The following applies: in vivo. In kind it is ADME, organism-based. Also on record: dose 0.3 mg/kg, route intravenous.
The next data set deals with Rattus norvegicus. Description: Suppression of pressure-overload-induced cardiac hypertrophy in Wistar rat assessed as decrease in left ventricular weight to body weight ratio at 1 mg/kg, po once daily for 7 days. In kind it is functional, organism-based. The conditions noted are these: Heart left ventricle. The arrangement: dose 1 mg/kg.
A short description of data set [7]: Oral bioavailability in Wistar rat at 3 mg/kg. In kind it is ADME, organism-based. The conditions noted are these: in vivo.
Data set [8] is described as follows: AUC in Wistar rat at 0.3 mg/kg, iv. The format is ADME, organism-based. Also on record: dose 0.3 mg/kg, route intravenous. The following applies: plasma.
The nature of data set [9]: AUC in Wistar rat at 3 mg/kg, po. The following applies: plasma. Also on record: dose 3 mg/kg, route oral. In kind it is ADME, organism-based.
Data set [10] can be described thus: Tmax in Wistar rat at 3 mg/kg, po. In kind it is ADME, organism-based. Also on record: dose 3 mg/kg, route oral. The conditions noted are these: in vivo.
Data set [11] is described as follows: Volume of distribution at steady state in Wistar rat at 0.3 mg/kg, iv. The conditions noted are these: in vivo, read-out: Vdss. The arrangement: dose 0.3 mg/kg, route intravenous. In kind it is ADME, organism-based.
The nature of data set [12]: Cmax in Wistar rat at 3 mg/kg, po. The following applies: in vivo. The arrangement: dose 3 mg/kg, route oral. In kind it is ADME, organism-based.

Molecules are shown by their SMILES. Calls of active or inactive are those of the source. The calls are words filed in the database; no cut-off is given here.

Sequence of Mitogen-activated protein kinase 8 (Homo sapiens, UniProt P45983) (P45983 whole entry): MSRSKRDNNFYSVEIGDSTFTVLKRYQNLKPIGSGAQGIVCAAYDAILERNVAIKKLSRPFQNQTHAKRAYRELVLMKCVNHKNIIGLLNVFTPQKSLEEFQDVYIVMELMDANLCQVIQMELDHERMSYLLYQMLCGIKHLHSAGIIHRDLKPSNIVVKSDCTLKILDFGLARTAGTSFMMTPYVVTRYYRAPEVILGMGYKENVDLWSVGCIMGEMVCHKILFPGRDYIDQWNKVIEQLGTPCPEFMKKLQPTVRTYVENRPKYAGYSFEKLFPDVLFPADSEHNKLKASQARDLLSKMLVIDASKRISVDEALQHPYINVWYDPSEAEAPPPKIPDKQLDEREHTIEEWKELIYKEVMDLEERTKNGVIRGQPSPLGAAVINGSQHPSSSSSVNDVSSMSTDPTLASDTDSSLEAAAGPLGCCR
Sequence of Mitogen-activated protein kinase 8 (Rattus norvegicus, UniProt P49185) (P49185 whole entry): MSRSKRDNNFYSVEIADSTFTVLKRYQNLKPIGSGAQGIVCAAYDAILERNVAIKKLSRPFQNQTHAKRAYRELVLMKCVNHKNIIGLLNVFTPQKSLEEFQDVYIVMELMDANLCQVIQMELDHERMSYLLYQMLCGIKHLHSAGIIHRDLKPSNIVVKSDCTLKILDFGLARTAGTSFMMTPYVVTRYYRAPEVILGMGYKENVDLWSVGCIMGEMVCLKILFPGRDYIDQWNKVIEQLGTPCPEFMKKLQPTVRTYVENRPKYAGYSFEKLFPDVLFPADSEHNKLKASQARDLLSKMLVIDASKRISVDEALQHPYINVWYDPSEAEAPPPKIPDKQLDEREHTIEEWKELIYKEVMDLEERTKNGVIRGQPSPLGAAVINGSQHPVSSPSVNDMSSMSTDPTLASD

As for `CCC(=O)c1c(-c2ccccc2)c2cc(Cl)ccc2c(=O)n1Cc1cc(S(C)(=O)=O)n(CC(C)=O)n1`, the IC50 (as a rule, the concentration that inhibits the measured activity by half) turned out to be 7.6 nM in data set [1] and 730 nM in data set [5]. For the same compound, the logD (in general, the decadic logarithm of the distribution of all forms, ionised or not, between an organic phase and buffer at a given pH) in [2] is 3.79. Also, the microsomal CLint at 1 µM is 80 µL/min/mg in [3] and 70 µL/min/mg in data set [4].

Turning to `CCC(=O)c1c(-c2ccccc2)c2cc(Cl)ccc2c(=O)n1Cc1cc(S(C)(=O)=O)n(CCC(C)(C)O)n1`, the IC50 was determined as 10 nM in data set [1] and 330 nM in [5]. The same compound registered a logD in data set [2] of 4.23. Also, the microsomal CLint at 1 µM in data set [3] came to 74 µL/min/mg; in data set [4], 102 µL/min/mg.

`CCC(=O)c1c(-c2ccccc2)c2cc(Cl)ccc2c(=O)n1Cc1cc(C(N)=O)n(C)n1`: the figures for the IC50 in data set [1] and in [5] were 7.3 nM and 2180 nM, respectively. In [2], this compound yielded a log distribution coefficient (logD) of 3.77. In addition, the figures for the microsomal CLint at 1 µM in data set [3] and in data set [4] were 81 µL/min/mg and 15 µL/min/mg, respectively.

On to `CCC(=O)c1c(-c2ccccc2)c2cc(Cl)ccc2c(=O)n1Cc1cc(C(=O)NC2CC2)n(CC(F)F)n1`, for which the IC50 stood at 10 nM in data set [1] and 1140 nM in data set [5]. The pH-dependent lipophilicity (logD) in data set [2] worked out at 4.66. For the same compound, the microsomal CLint at 1 µM in data set [4] came out at 14 µL/min/mg.

As for `CCC(=O)c1c(-c2ccccc2)c2cc(Cl)ccc2c(=O)n1Cc1cc(C(N)=O)n(CC)n1`, the IC50 in data set [1] worked out at 11 nM; in data set [5], 670 nM. This compound displayed a logD in data set [2] of 4.08. Also, the results for the microsomal CLint at 1 µM in data set [3] and in data set [4] were 110 µL/min/mg and 35 µL/min/mg, respectively.

As for `CCC(=O)c1c(-c2ccccc2)c2cc(Cl)ccc2c(=O)n1Cc1cc(C(=O)N(C)C)n(C)n1`, the IC50 in data set [1] came to 11 nM. Moreover, the logD in data set [2] was 3.91. Besides, the microsomal CLint at 1 µM in data set [3] was determined as 230 µL/min/mg; in data set [4] it was 250 µL/min/mg.

On to `CCNC(=O)n1ccc(Cn2c(C(=O)CC)c(-c3ccccc3)c3cc(Cl)ccc3c2=O)n1`, for which the IC50 in data set [1] is 8.6 nM. In addition, in data set [2], the logD turned out to be 4.51.

In the case of `CCC(=O)c1c(-c2ccccc2)c2cc(Cl)ccc2c(=O)n1Cc1cc(S(C)(=O)=O)n(CC(F)F)n1`, the figures for the IC50 in data set [1] and in data set [5] were 10 nM and 480 nM, respectively. The logD in [2] was 4.19. The microsomal CLint at 1 µM was 52 µL/min/mg in data set [3] and 36 µL/min/mg in [4].

Turning to `CCC(=O)c1c(-c2ccccc2)c2cc(Cl)ccc2c(=O)n1Cc1cc(C(=O)NC2CC2)n(C)n1`, the clearance (commonly a measure of how efficiently the substance is removed, as volume per time) in data set [6] was 21.4 mL/min/kg. For the same compound, the outcome in the data set on Rattus norvegicus was Active. The bioavailability (in general, dose-corrected exposure relative to a reference, in per cent) in [7] stood at 15%. Besides, the figures for the AUC in data set [8] and in data set [9] were 234 ng·h/mL and 340 ng·h/mL, respectively. The values for the IC50 in data set [1] and in data set [5] were 6.4 nM and 720 nM, respectively. The compound also displayed a logD in data set [2] of 4.35. In addition, the values for the microsomal CLint at 1 µM in data set [3] and in [4] were 89 µL/min/mg and 44 µL/min/mg, respectively. Also, the Tmax (commonly the time at which the peak concentration occurs) in [10] was 2 h. Moreover, the Vd in [11] was found to be 3.54 L/kg. For the same compound, the Cmax (as a rule, the highest concentration seen after dosing) in [12] came out at 47.1 ng/mL.

Take `CCC(=O)c1c(-c2ccccc2)c2cc(Cl)ccc2c(=O)n1Cc1cc(S(C)(=O)=O)n(CC(N)=O)n1`: the IC50 came to 8.2 nM in data set [1] and 1050 nM in data set [5]. The compound further gave a logD in data set [2] of 3.42. Also, the microsomal CLint at 1 µM in [4] is 14 µL/min/mg.

Turning to `COC(=O)c1c(-c2ccccc2)c2cc(Br)ccc2c(=O)n1Cc1ccc(S(C)(=O)=O)cc1`, the IC50 in data set [5] was 2600 nM.

Consider `CCC(=O)c1c(-c2ccccc2)c2cc(Cl)ccc2c(=O)n1Cc1cc(C(=O)NC)n[nH]1`, for which the midpoint of inhibition in data set [1], the IC50, lay at 33 nM. For the same compound, in data set [2], the log distribution coefficient (logD) came to 3.5. Also, the microsomal CLint at 1 µM in [3] was found to be 74 µL/min/mg; in [4], 37 µL/min/mg.

For `CCC(=O)c1c(-c2ccccc2)c2cc(Cl)ccc2c(=O)n1Cc1ccc(C(=O)O)cc1`, the IC50 in [5] turned out to be 2300 nM.

Turning to `CCC(=O)c1c(-c2ccccc2)c2cc(Cl)ccc2c(=O)n1Cc1ccc(S(C)(=O)=O)cc1`, the IC50 in data set [1] was 28 nM.

Take `CCNC(=O)n1cc(Cn2c(C(=O)CC)c(-c3ccccc3)c3cc(Cl)ccc3c2=O)cn1`: the IC50 in [1] is 43 nM. The log distribution coefficient (logD) in [2] stood at 4.45. Moreover, the microsomal CLint at 1 µM in data set [3] was 60 µL/min/mg; in [4] it was 43 µL/min/mg.

As to `CCC(=O)c1c(-c2ccccc2)c2cc(Cl)ccc2c(=O)n1Cc1cc(C(=O)NC)n(C)n1`, the IC50 in data set [1] turned out to be 9.4 nM; in data set [5], 260 nM. In data set [2], the logD came out at 3.97. For the same compound, the microsomal CLint at 1 µM in data set [3] stood at 177 µL/min/mg; in [4], 79 µL/min/mg.

Compound `CCC(=O)c1c(-c2ccccc2)c2cc(Cl)ccc2c(=O)n1Cc1cn(C(=O)NC)c(C)n1` showed an IC50 in data set [1] of 6.8 nM.
